# Legend:
# BPE cells = assay: in vitro growth inhibition by estrogen antagonist, BPE cells; type: cell-based, human; conditions: data not shown
# Source text: (§1) Expression of CK18 and BER-Ep4 both confirm the adenocarcinoma features and exclude a squamous tumor. E-cadherin excludes a mesenchymal tumor. BPLER xenografts express progesterone receptor, which is consistent with the notion that BPLER xenografts are hormone-responsive. This was confirmed by experiments in which estrogen-progesterone treatment of mice increased subject tumor size approximately two-fold compared to untreated mice. […] Similar tumor xenografts from cells cultured in the MEGM media was negative for progesterone receptor expression and the in vitro growth inhibition of the cells with ICI 182,780 was less than 20% (data not shown).
# [1] = test system: cells cultured in the MEGM media; assay: in vitro growth inhibition by estrogen antagonist, cells cultured in the MEGM media; type: cell-based, human; conditions: data not shown
# Source text: as §1
# BPLE cells = assay: in vitro growth inhibition by estrogen antagonist, BPLE cells; type: cell-based, human; conditions: data not shown
# Source text: as §1
# BPEC cells = assay: in vitro growth inhibition by estrogen antagonist, BPEC cells; type: cell-based, human; conditions: data not shown
# Source text: as §1
# BPLER xenograft tumors = assay: hormone responsiveness of BPLER xenograft tumors in mice; type: in vivo; conditions: estrogen treated animals
# Source text: In one respect, the histology of tumors arising from BPLER is very similar, if not identical to human ductal breast carcinoma. There is prominent luminal marker CK18 expression in BPLER cells and tumors. There is also prominent expression of E-cadherin, a marker indicating polarization of cells. Morphology wise, BPLER xenografts form glandular structures similar to those seen in human tumors. BPLER xenografts into mammary fat pads are invasive into adjacent skeletal muscle, and cause a desmoplastic reaction. BPLER xenografts also express progesterone receptors based on immunohistological staining of xenograft tumor samples. In addition, BPLER tumor sizes respond to estrogen treatment, in that xenograft tumors weighed about 70-100% more in estrogen treated animals than in control animals. BPLER tumors spread within the breast tissue of mice, and the multifocal growth is consistent with lymphovascular invasion and spread of tumors. […]
# Analysis of tumorigenicity and metastasis: Single-cell suspensions were prepared in a WIT:Matrigel (1:1) mixture and injected in 25 μL (orthotopic) and 100 μl (subcutaneous) volumes. […] Metastasis to lungs and other tissues was analyzed initially under a dissecting microscope (Leica) in fresh tissues, followed by microscopic examination of hematoxylin-eosin and immunostained sections of formalin-fixed and paraffin-embedded tissues. […]
compound,measurement,setting,value
"C[C@]12CC[C@@H]3c4ccc(O)cc4C[C@@H](CCCCCCCCC[S+]([O-])CCCC(F)(F)C(F)(F)F)[C@H]3[C@@H]1CC[C@@H]2O (some centres unmarked) [ICI 182,780]",growth inhibition,BPE cells,> 80%
same,in vitro growth inhibition,[1],less than 20%
same,growth inhibition,BPLE cells,> 80%
same,growth inhibition,BPEC cells,> 80%
estrogen,xenograft tumor weight increase in treated animals vs control animals,BPLER xenograft tumors,70-100%

# Source: patent US11530385B2, “Hormone responsive tissue culture system and uses thereof” (Whitehead Institute for Biomedical Research, priority 2007, dated 2022)
